Source: patent US20120022142A1, “RNA Interference Mediated Inhibition of Signal Transducer and Activator of Transcription 1 (STAT1) Gene Expression Using Short Interfering Nucleic Acid (siNA)” (Merck Sharp & Dohme Corp., priority 2009, published 2012)
Read-outs that look alike come from different tables or passages of the source. [invAb] = inverted abasic unit; m = 2'-O-methyl; r = 2'-OH (RNA); f = 2'-fluoro

What was measured:
STAT1 mRNA = assay: Efficacy (% KD) and potency (IC50) of STAT1 mRNA knockdown of siNA leads in A549 cells; assay type: cell-based, human; settings: for Human (A549) avg % KD: STAT1 mRNA, 30 nM siNA, at least three experiments
Experimental: A549 cells were plated in 6-well plates at final counts of 70,000 cells/well in 2 ml of complete growth media (Ham's F12, Cellgro Cat# 10-080-CV+10% FBS). Transfection was performed using 2.5 uL of RNAiMax (Invitrogen Cat# 13778-150) per well. Final concentration of siNAs was 30, 3, 0.3, 0.03, 0.003, and 0.0003 nM done in duplicate. The siNAs were incubated for 24-72 hours. The duplicate samples were pooled to prepare protein lysates and RNA using the “PARIS” Protein and RNA Isolation System from Ambion, Cat# 1921. The total protein in the lysates was measured using a Bradford Dye Reagent (Bio-Rad, Cat# 500-0205).SDS-PAGE/Western Blotting was performed on the on the protein samples and RT-PCR on the RNA samples.
(§1) A series of probes and primers were used to detect the various mRNA transcripts of the genes of β-Actin (human cell line only), and of STAT1 and GAPDH in mouse and human cell lines. All Taqman probes and primers for the experiments here-in described were supplied as pre-validated sets by Applied Biosystems, Inc. (see Table 2).
The assays were performed on an ABI 7900 instrument, according to the manufacturer's instructions.
The expression level of the gene of interest and % knock-down was calculated using Comparative Ct method: […]
All calculations of IC50s were performed using SigmaPlot 10.0 software. The data were analyzed using the sigmoidal dose-response (variable slope) equation for simple ligand binding. In all of the calculations of the % knock-down, the calculation was made relative to the normalized level of expression of the gene of interest in the samples treated with the non-targeting control (Ctrl siNA) unless otherwise indicated.
Certain siNAs were further analyzed for efficacy in human A549 cells and mouse NIH3T3 cells. Percent KD/reduction is represented as mean±S.D. IC50 is represented as mean±S.D. The date is summarized from at least three separate experiments and within each experiment, the data point is calculated from an n=2. The final concentration of siNA used was 30 nM.

STAT1 mouse mRNA = assay: Initial screen of siNAs: STAT1 mRNA knock-down in NIH 3T3 cells (96-well transfection, Taqman RT-PCR); assay type: cell-based; settings: 10 nM siNA, 24 hrs, normalized against GAPDH, average of 2 experiments
STAT3 mRNA = assay: Effect of STAT1 siRNAs on expression of STAT3 mRNA in A549 cells (quantitative RT-PCR); assay type: cell-based, human; settings: 1 nM siRNA, normalized to GAPDH
From the text: as §1
The levels of expression of STAT3 were normalized to the level of GAPDH. There was no significant effect (p>0.05) of treatment with any of the lead STAT1 siRNAs on the expression human or mouse STAT3 mRNA at 1 nM (10 to 100 times the IC50s of the siRNAs).

STAT1 human mRNA = assay: Initial screen of siNAs: STAT1 mRNA knock-down in A549 cells (96-well transfection, Taqman RT-PCR); assay type: cell-based; settings: 10 nM siNA, 24 hrs, normalized against GAPDH, average of 2 experiments
[1] = A549 cells, Table 5, read-out: IC50 vs. STAT1 mRNA
[2] = STAT1 mRNA knockdown, mean ± S.D., read-out: Human (A549) IC50

Substance | IC50 (STAT1 mRNA; [1]) | IC50 (STAT1 mRNA; [2]) | Human (A549) avg % KD (STAT1 mRNA; mean ± S.D.) | % KD Mouse (STAT1 mouse mRNA) | STAT3 % KD at 1 nM (STAT3 mRNA) | % KD Human (STAT1 human mRNA)
25351-DC: STAT1 siNA duplex, human target site 2249; modified strands SEQ ID NO: 39 and 40 (chain 1 CCUACACGAAGAAAGAACUTT; chain 2 AGUUCUUUCUUCGUGUAGGUU; chain 1: DNA at AGT, 2'-fluoro at CU, [invAb] at 5' end, 3' end, backbone not given here; chain 2: sugars from the 5' end rrrfffffffffmfmfmmmmm, backbone not given here) | 25 ± 9 pM | 12 ± 2 pM | 91.7 ± 0.1% | 82% | 8% | 90%
25367-DC: STAT1 siNA duplex, human target site 966; modified strands SEQ ID NO: 71 and 72 (chain 1 GCUUGACAAUAAGAGAAAGTT; chain 2 CUUUCUCUUAUUGUCAAGCUU; chain 1: DNA at AGT, 2'-fluoro at CU, [invAb] at 5' end, 3' end, backbone not given here; chain 2: sugars from the 5' end rrrffffffmffmffmmmfmm, backbone not given here) | 10 ± 6.4 pM | 32 ± 14 pM | 88.6 ± 1.1% | 82% | 12% | 91%
25368-DC: STAT1 siNA duplex, human target site 782; modified strands SEQ ID NO: 73 and 74 (chain 1 GUAAAGUCAGAAAUGUGAATT; chain 2 UUCACAUUUCUGACUUUACUU; chain 1: DNA at AGT, 2'-fluoro at CU, [invAb] at 5' end, 3' end, backbone not given here; chain 2: sugars from the 5' end rrrmfmfffffmmffffmfmm, backbone not given here) | 97 ± 18 pM | 10 ± 6.4 pM | 89.1 ± 1.8% | 87% | −2% | 91%
25369-DC: STAT1 siNA duplex, human target site 602; modified strands SEQ ID NO: 75 and 76 (chain 1 GGAAAAGCAAGCGUAAUCUTT; chain 2 AGAUUACGCUUGCUUUUCCUU; chain 1: DNA at AGT, 2'-fluoro at CU, [invAb] at 5' end, 3' end, backbone not given here; chain 2: sugars from the 5' end rrrffmfmfffmfffffffmm, backbone not given here) | 12 ± 2 pM | 97 ± 18 pM | 88.8 ± 3.1% | 66% | −2% | 92%
25372-DC: STAT1 siNA duplex, human target site 968; modified strands SEQ ID NO: 81 and 82 (chain 1 UUGACAAUAAGAGAAAGGATT; chain 2 UCCUUUCUCUUAUUGUCAAUU; chain 1: DNA at AGT, 2'-fluoro at CU, [invAb] at 5' end, 3' end, backbone not given here; chain 2: sugars from the 5' end rrrffffffffmffmffmmmm, backbone not given here) | 32 ± 14 pM | 25 ± 9 pM | 86.0 ± 2.0% | 81% | 3% | 92%
